Like-named read-outs stand apart in the source and are kept apart here.
Tests used:
[1] = target: Human CB2R (Cannabinoid receptor 2) (Homo sapiens, UniProt P34972); experiment: CB-2 in vitro cAMP (HTRF) assay; type: cell-based; conditions: for EC50: HEK cells, cAMP HTRF, 250 nM forskolin, mean where tested more than once, read-out: CB2 HEK_cAMP EC50
Summary of the method: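 HEK-293 cells stably expressing receptor, plated overnight at 4E5 cells/mL, tested with 1/3 serial dilutions of compound in HBSS/HEPES/BSA buffer with 0.5 mM IBMX and forskolin (diluted to 1.5 μM in buffer). cAMP measured by competitive HTRF immunoassay (d2-cAMP, cryptate anti-cAMP), signal inversely proportional to cAMP.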

[2] = target: Human CB1R (Cannabinoid receptor 1) (Homo sapiens, UniProt P21554); experiment: CB-1 in vitro cAMP (HTRF) assay; type: cell-based; conditions: for EC50: cAMP HTRF, 250 nM forskolin, mean where tested more than once
Chain of Human CB1R (Cannabinoid receptor 1) (P21554 whole entry): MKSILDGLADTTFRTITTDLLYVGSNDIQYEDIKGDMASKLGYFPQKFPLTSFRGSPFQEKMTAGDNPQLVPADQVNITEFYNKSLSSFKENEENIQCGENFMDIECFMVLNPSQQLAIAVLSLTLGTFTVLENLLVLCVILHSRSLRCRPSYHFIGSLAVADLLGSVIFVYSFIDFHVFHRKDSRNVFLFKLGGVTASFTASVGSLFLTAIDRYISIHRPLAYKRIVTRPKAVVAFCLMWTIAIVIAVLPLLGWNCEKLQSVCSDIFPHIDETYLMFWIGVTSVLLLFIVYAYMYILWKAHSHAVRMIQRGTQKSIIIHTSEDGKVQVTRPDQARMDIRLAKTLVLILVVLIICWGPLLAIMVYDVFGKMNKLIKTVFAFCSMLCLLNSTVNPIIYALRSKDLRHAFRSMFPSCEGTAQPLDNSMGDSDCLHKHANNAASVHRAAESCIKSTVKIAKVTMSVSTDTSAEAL
Summary of the method: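 Intracellular cAMP from HTRF ratio (d2-cAMP vs Eu-cryptate anti-cAMP), converted to nM via per-plate standards, in stable human CB1R HEK-293 cells.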

[3] = HEK cells, read-out: CB1 HEK_cAMP EC50

Chain of Human CB2R (Cannabinoid receptor 2) (P34972 whole entry): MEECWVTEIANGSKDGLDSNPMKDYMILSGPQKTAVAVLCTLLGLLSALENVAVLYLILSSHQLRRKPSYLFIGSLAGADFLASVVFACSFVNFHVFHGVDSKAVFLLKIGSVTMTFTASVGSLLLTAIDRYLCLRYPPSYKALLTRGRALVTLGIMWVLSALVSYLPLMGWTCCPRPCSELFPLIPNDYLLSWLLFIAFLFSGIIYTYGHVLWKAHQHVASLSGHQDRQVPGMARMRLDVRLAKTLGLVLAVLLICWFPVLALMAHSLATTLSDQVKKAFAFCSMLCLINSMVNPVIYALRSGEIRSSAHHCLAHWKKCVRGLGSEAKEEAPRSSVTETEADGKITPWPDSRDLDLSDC

| SMILES | EC50 [1] | EC50 [2, 3] | IC50 ([1]; second line, the sentence announces activity against CB-1 and CB-2, read-out: CB-1 receptor: IC50 (second line of the list)) | IC50 ([2]; first line of the list, HEK-293 cells, cAMP, 250 nM Forskolin) | EC50 ([2]; CB1 HEK_cAMP EC50, HEK cells) |
| --- | --- | --- | --- | --- | --- |
| O=S(=O)(c1cccc(NCCOCCOCc2ccccc2)c1)N1CCC(n2c(C3CC3)nc3ccc(C(c4ccc(Cl)cc4)c4ccc(Cl)cc4)cc32)CC1 [compound of formula (II), N-(2-(2-(benzyloxy)ethoxy)ethyl)-3-((4-(6-(bis(4-chlorophenyl)methyl)-2-cyclopropyl-1H-benzo[d]imidazol-1-yl)piperidin-1-yl)sulfonyl)aniline] |  |  | > 10000 nM | 13.5 nM |  |
| O=S(=O)(N1CCC(n2c(C3CC3)nc3ccc(C(c4ccc(Cl)cc4)c4ccc5c(c4)OCO5)cc32)CC1)C(F)(F)F (stereo not drawn) [Example 321] | 4030 nM | 6.2 nM |  |  |  |
| CC(C)(C)c1nc2ccc(C(c3ccc(Cl)cc3)c3ccc(Cl)cc3)cc2n1C1CCN(S(=O)(=O)C(F)(F)F)CC1 [Example 291] | > 10000 nM | 2260 nM |  |  |  |
| O=C(OCc1ccccc1)N1CCC(n2c(C3CC3)nc3ccc(C(c4ccc(Cl)cc4)c4ccc(Cl)cc4)cc32)CC1 [Example 69] | 1210 nM | 8.6 nM |  |  |  |
| NC(=O)c1ccc(CN2CCC(n3c(C4CC4)nc4ccc(C(c5ccc(Cl)cc5)c5ccc(Cl)cc5)cc43)CC2)cc1 [Example 138] | 3900 nM | 13.9 nM |  |  |  |
| CCOC(=O)N1CCC(n2c(C3CN(C(=O)OC(C)(C)C)C3)nc3ccc(C(c4ccc(Cl)cc4)c4nccs4)cc32)CC1 (stereo not drawn) [Example 417] | > 10000 nM | 2540 nM |  |  |  |
| CC(C)(C)OC(=O)N1CCC(n2c(C3CC3)nc3ccc(C(O)(c4ccc(Cl)cc4)c4ccc(Cl)cc4)cc32)CC1 [Example 41] | > 42000 nM | 30.6 nM |  |  |  |
| O=S(=O)(N1CCC(n2c(C3CC3)nc3ccc(C(CO)(c4ccc(Cl)cc4)c4ccc(Cl)cc4)cc32)CC1)C(F)(F)F [Example 245] | > 10000 nM | 283 nM |  |  |  |
| NC(=O)c1cccc(CN2CCC(n3c(C4CC4)nc4ccc(C(c5ccc(Cl)cc5)c5ccc(Cl)cc5)cc43)CC2)n1 [Example 104] | 6000 nM | 12.1 nM |  |  |  |
| O=C(O)c1ccc(-c2cccc(S(=O)(=O)NCCCn3c(C4CC4)nc4ccc(C(c5ccc(Cl)cc5)c5ccc(Cl)cc5)cc43)c2)cc1 [Example 8] | 78.2 nM | 33.9 nM |  |  |  |
| O=S(=O)(N1CCC(n2c(C3COC3)nc3ccc(C(O)(c4ccc(Cl)cc4)c4ccc(Cl)cc4)cc32)CC1)C(F)(F)F [Example 255] | > 10000 nM | 7.3 nM |  |  |  |
| Clc1ccc(C(c2ccc(Cl)cc2)c2ccc3nc(C4CC4)n(CC4CCOCC4)c3c2)cc1 [Example 120] | 5430 nM |  |  |  | 24.9 nM |
| O=S(=O)(c1ccccc1O)N1CCC(n2c(C3CC3)nc3ccc(C(c4ccc(Cl)cc4)c4ccc(Cl)cc4)cc32)CC1 [Example 258] | > 10000 nM | 20.1 nM |  |  |  |
| NS(=O)(=O)c1ccc(C(=O)N2CCC(n3c(C4CC4)nc4ccc(C(c5ccc(Cl)cc5)c5ccc(Cl)cc5)cc43)CC2)cc1 [Example 230] | 5900 nM | 91.9 nM |  |  |  |
| NC(=O)c1csc(CN2CCC(n3c(C4CC4)nc4ccc(C(c5ccc(Cl)cc5)c5ccc(Cl)cc5)cc43)CC2)c1 [Example 127] | > 10000 nM | 5 nM |  |  |  |
| O=C(O)c1ccc(S(=O)(=O)N2CCC(n3c(C4CC4)nc4ccc(C(c5ccc(Cl)cc5)c5ccc(Cl)cc5)cc43)CC2)cc1F [Example 190] | 699 nM | 11.3 nM |  |  |  |
| O=C(Oc1ccccc1)N1CCC(n2c(C3CC3)nc3ccc(C(c4ccc(Cl)cc4)c4ccc(Cl)cc4)cc32)CC1 [Example 61] | > 21000 nM | 19 nM |  |  |  |
| O=C(Nc1ccccc1)N1CCC(n2c(C3CC3)nc3ccc(C(c4ccc(Cl)cc4)c4ccc(Cl)cc4)cc32)CC1 [Example 50] | > 10000 nM | 48.1 nM |  |  |  |
| COC(=O)CCNC(=O)c1cccc(S(=O)(=O)N2CCC(n3c(C4CC4)nc4ccc(C(c5ccc(Cl)cc5)c5ccc(Cl)cc5)cc43)CC2)c1 [Example 203] | > 10000 nM | 32.4 nM |  |  |  |
| Cc1cc(C(N)=O)sc1S(=O)(=O)N1CCC(n2c(C3CC3)nc3ccc(C(c4ccc(Cl)cc4)c4ccc(Cl)cc4)cc32)CC1 [Example 215] | > 10000 nM | 2 nM |  |  |  |
| NC(=O)c1ccc(S(=O)(=O)N2CCC(n3c(C4CC4)nc4ccc(C(c5ccc(Cl)cc5)c5ccc(Cl)cc5)cc43)CC2)o1 [Example 224] | > 10000 nM | 6 nM |  |  |  |
| O=S(=O)(c1ccc(OC(F)(F)F)cc1)N1CCC(n2c(C3CC3)nc3ccc(C(c4ccc(Cl)cc4)c4ccc(Cl)cc4)cc32)CC1 [Example 279] | > 10000 nM | 32.2 nM |  |  |  |
| CCC(c1cccc(C(=O)O)c1)N1CCC(n2c(C3CC3)nc3ccc(C(c4ccc(Cl)cc4)c4ccc(Cl)cc4)cc32)CC1 (stereo not drawn) [Example 49] | 4400 nM | 8.5 nM |  |  |  |
| CCOC(=O)N1CCC(n2c(CC)nc3ccc(C(c4ccc(Cl)cc4)c4ccc(Cl)cc4)cc32)CC1 [Example 332] | 4700 nM | 14.7 nM |  |  |  |
| O=S(=O)(N1CCC(O)(Cn2c(C3CC3)nc3ccc(C(c4ccc(Cl)cc4)c4ccc(Cl)cc4)cc32)CC1)C(F)(F)F [Example 295] | 9000 nM | 5 nM |  |  |  |
| O=C(O)c1cccc(S(=O)(=O)N[C@H]2CC[C@@H](n3c(C4CC4)nc4ccc(C(c5ccc(Cl)cc5)c5ccc(Cl)cc5)cc43)CC2)c1 [Example 43] | 12100 nM | 113 nM |  |  |  |

Continued, in another order:

| EC50 [1] | EC50 [2, 3] | IC50 ([1]; second line, the sentence announces activity against CB-1 and CB-2, read-out: CB-1 receptor: IC50 (second line of the list)) | IC50 ([2]; first line of the list, HEK-293 cells, cAMP, 250 nM Forskolin) | SMILES | EC50 ([2]; CB1 HEK_cAMP EC50, HEK cells) |
| --- | --- | --- | --- | --- | --- |
| > 10000 nM | 6550 nM |  |  | COC(=O)c1cccc(-n2c(C3CC3)nc3ccc(C(c4ccc(Cl)cc4)c4ccc(Cl)cc4)cc32)c1 [Example 174] |  |
| > 10000 nM | > 10000 nM |  |  | Clc1ccc(C(c2ccc3ncn(-c4cccc(Cl)c4)c3c2)c2nccs2)cc1 (stereo not drawn) [Example 435] |  |
| > 10000 nM | 947 nM |  |  | CCOC(=O)N1CCC(n2c(C)nc3ccc(C(c4ccc(Cl)cc4)c4nccs4)cc32)CC1 (stereo not drawn) [Example 445] |  |
| 798 nM | 17 nM |  |  | O=S(=O)(NCCCn1c(C2CC2)nc2ccc(C(c3ccc(Cl)cc3)c3ccc(Cl)cc3)cc21)c1cccc(Br)c1 [Example 9] |  |
| 2440 nM | 14.6 nM |  |  | O=C(O)c1cccc(OCCN2CCC(n3c(C4CC4)nc4ccc(C(c5ccc(Cl)cc5)c5ccc(Cl)cc5)cc43)CC2)c1 [Example 44] |  |
| > 10000 nM | 569 nM |  |  | Clc1ccc(C(c2ccc3nc(C4CC4)n(Cc4ccccn4)c3c2)c2nccs2)cc1 (stereo not drawn) [Example 403] |  |
| > 10000 nM | 21.9 nM |  |  | COc1cccc(S(=O)(=O)N2CCC(n3c(C4CC4)nc4ccc(C(c5ccc(Cl)cc5)c5ccc(Cl)cc5)cc43)CC2)c1 [Example 261] |  |
| 4360 nM | 3340 nM |  |  | O=C(O)c1ccc(OCCn2c(C3CC3)nc3ccc(C(c4ccc(Cl)cc4)c4ccc(Cl)cc4)cc32)cc1 [Example 35] |  |
| > 10000 nM | > 10000 nM |  |  | CC(C)Cc1nc2ccc(C(c3ccc(Cl)cc3)c3nccs3)cc2n1-c1cccc(Cl)c1 (stereo not drawn) [Example 433] |  |
| > 10000 nM | 623 nM |  |  | CCOC(=O)N1CCC(n2c(C3CCOCC3)nc3ccc(C(c4ccc(Cl)cc4)c4nccs4)cc32)CC1 (stereo not drawn) [Example 412] |  |
| > 10000 nM | 25 nM |  |  | COc1cccc(-n2c(C3CC3)nc3ccc(C(c4ccc(Cl)cc4)c4ccc(Cl)cc4)cc32)c1 [Example 181] |  |
| > 10000 nM | 308 nM |  |  | CCCc1nc2ccc(C(c3ccc(Cl)cc3)c3nccs3)cc2n1CCc1cccc(Cl)c1 (stereo not drawn) [Example 410] |  |
| > 10000 nM | 376 nM |  |  | CCOC(=O)N1CCC(n2c(C3CCCO3)nc3ccc(C(c4ccc(Cl)cc4)c4nccs4)cc32)CC1 (stereo not drawn) [Example 411] |  |
| 5120 nM | 104 nM |  |  | O=C(O)c1cccc(NC2CCC(n3c(C4CC4)nc4ccc(C(c5ccc(Cl)cc5)c5ccc(Cl)cc5)cc43)CC2)c1 (stereo not drawn) [Example 40] |  |
| 7600 nM | 26.7 nM |  |  | Clc1ccc(C(c2ccc(Cl)cc2)c2ccc3nc(C4CC4)n(CCOc4cccc(Br)c4)c3c2)cc1 [Example 7] |  |
| > 10000 nM | 9.2 nM |  |  | Nc1cccc(S(=O)(=O)N2CCC(n3c(C4CC4)nc4ccc(C(c5ccc(Cl)cc5)c5ccc(Cl)cc5)cc43)CC2)c1 [Example 52] |  |
| > 10000 nM | 4340 nM |  |  | O=C(O)[C@H]1CC[C@H](n2c(C3CC3)nc3ccc(C(c4ccc(Cl)cc4)c4ccc(Cl)cc4)cc32)CC1 [Example 134] |  |
| > 10000 nM | 473 nM |  |  | Cc1nc2ccc(C(c3ccc(Cl)cc3)c3nccs3)cc2n1-c1cccc(Cl)c1 (stereo not drawn) [Example 436] |  |
| 7900 nM | 96.7 nM |  |  | COc1ccc(Cn2c(C3CC3)nc3ccc(C(c4ccc(Cl)cc4)c4ccc(Cl)cc4)cc32)cc1 [Example 177] |  |
| > 10000 nM | 2320 nM |  |  | FC(F)(F)c1nc2ccc(C(c3ccc(Cl)cc3)c3nccs3)cc2n1CCc1cccc(Cl)c1 (stereo not drawn) [Example 424] |  |
| > 10000 nM | 242 nM |  |  | O=S(=O)(N1CCC(n2c(-c3ccncc3)nc3ccc(C(c4ccc(Cl)cc4)c4nccs4)cc32)CC1)C(F)(F)F (stereo not drawn) [Example 390] |  |
| > 10000 nM | 231 nM |  |  | CCOC(=O)N1CCC(n2c(CC(C)C)nc3ccc(C(c4ccc(Cl)cc4)c4nccs4)cc32)CC1 (stereo not drawn) [Example 420] |  |
| 4490 nM | 6.2 nM |  |  | NC(=O)c1cccc(N2CCC(n3c(C4CC4)nc4ccc(C(c5ccc(Cl)cc5)c5ccc(Cl)cc5)cc43)CC2)c1 [Example 162] |  |
| > 10000 nM | 6150 nM |  |  | Clc1ccc(C(c2ccc3nc(C4CNC4)n(CCc4cccc(Cl)c4)c3c2)c2nccs2)cc1 (stereo not drawn) [Example 404] |  |
| > 10000 nM | > 10000 nM |  |  | O=C(O)COc1ccc(-n2c(C3CC3)nc3ccc(C(c4ccc(Cl)cc4)c4ccc(Cl)cc4)cc32)cc1 [Example 165] |  |
